Experimental data from patent US20200270588A1, “GLUCOSYL TRANSFERASE POLYPEPTIDES AND METHODS OF USE” (Syngenta Participations AG, priority 2017, published 2020).
“And” between values parts separate entries of the source, which are not always exact repeats. Equal entries are not always repeated.

Target: T1, Zea mays bx8 glucosyl transferase (SEQ ID 2) (Zea mays, UniProt Q8W2B7)
T1 construct: His tag; made in house
T1 sequence (Q8W2B7 1-459): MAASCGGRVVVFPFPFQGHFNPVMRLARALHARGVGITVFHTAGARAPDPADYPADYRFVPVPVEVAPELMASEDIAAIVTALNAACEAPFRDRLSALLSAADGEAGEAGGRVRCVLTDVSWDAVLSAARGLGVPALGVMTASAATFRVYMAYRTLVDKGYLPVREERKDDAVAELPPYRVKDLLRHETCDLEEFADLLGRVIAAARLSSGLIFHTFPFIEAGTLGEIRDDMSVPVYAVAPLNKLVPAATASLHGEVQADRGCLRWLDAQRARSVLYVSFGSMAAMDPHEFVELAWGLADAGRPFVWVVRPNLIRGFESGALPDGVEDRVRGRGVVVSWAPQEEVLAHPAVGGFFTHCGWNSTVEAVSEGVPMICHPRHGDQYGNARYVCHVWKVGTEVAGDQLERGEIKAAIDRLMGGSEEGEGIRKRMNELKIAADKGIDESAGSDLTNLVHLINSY
Test: LC/MS glucosyl transferase assay (glucoside peak area), purified enzyme
Type: biochemical
Conditions: for integrated peak area of beta-glucoside product: LC/MS, about 60 min, ~15 pmol enzyme, relative quantification only
Experimental: In an alternative method for assaying the various enzymes, the test glucosyl transferase enzyme is reacted with substrates exactly as above except that the assay is stopped by adding an equal volume of acetonitrile. Alternatively 50 or 100 μl samples from assay reactions are added to 500 μl ethyl acetate to stop the reaction. In this case samples are then vortexed and 400 μl of the ethyl acetate partition removed, dried down, and resuspended in 100 μl 80:20 acetonitrile/water. The formation of product gluco side and/or disappearance of substrate test herbicide is then monitored directly by LC/MS. Samples are analyzed by LC-MS using an Agilent 1290 liquid chromatography system and Thermo Q-Exactive mass spectrometer. The chromatography is achieved on a Waters Acquity C18 BEH (50×2.1 mm) 1.7 μm particle size column, using a 6 minute gradient run of Water (0.2% formic acid) and Acetonitrile. The Q-Exactive is operated in positive ionisation electrospray mode, using Full scan-AIF mode, at 35,000 resolution, between 100-800 m/z. All analytes are identified from the full scan data to within at least 5 ppm accuracy of their predicted pseudo-molecular ion [M+H]^+ m/z value. In order to obtain quantitative data standard curves are run using herbicides and herbicide glucosides synthesized as standards. Where these synthetic glucosides were not available the LC/MS assay could only be used to provide relative data.
DNA sequences, optimized for E. coli codon usage, were cloned, expressed and the various proteins purified and assayed as described in the foregoing examples. Using the UDP assay (as described in examples 1, 3 and 6) the data obtained from the Zea mays bx8 w/t protein and its variants was noisy due to relatively high background rates in DMSO reagent blanks. The values reported in the table 15 were thus monitored by LC/MS as described in example 1.
DNA sequences, optimized for E. coli codon usage, are cloned, expressed and the various proteins purified and assayed as described in the foregoing examples. As in Example 4, a DNA sequence is designed and synthesized to express the N-terminally his tagged Zea mays bx8 (SEQ ID No: 2). However in this case the DNA sequence is modified to further include a peptide insertion “GIGVD”=SEQ ID No: 102 in place of D442 of SEQ ID No: 2 and as indicated in Table 2. The resultant modified sequence is cloned into the E. coli expression plasmid pET24a using 5′ NdeI and 3′ XhoI restriction sites, expressed, purified and assayed. […] In LC/MS assays run for 30 min and similar to those described in example 7 the integrated peak areas for glucoside product from herbicide V from the w/t Zea mays bx8 SEQ ID NO:2 was 1.5E6 units whereas the corresponding number for the equivalent protein containing the GIGVD peptide insert was 2.5E6 units. […]

Structure (SMILES)	integrated peak area of beta-glucoside product	integrated peak area of glucoside product (LC/MS assay run for 30 min, N-terminally his tagged) [units]
CN1CC(O)N(c2cc(C(F)(F)F)c(Cl)cn2)C1=O (stereo not shown) [XI]	1.90E+04 and 2.36E+04 and 1.84E+04	–
CON1C(=O)N(c2cc(C(F)(F)F)ccn2)C(O)[C@@H]1C (stereo partly shown) [Compound VI]	8.08E+06 and 7.57E+06 and 8.81E+06 and 7.78E+06	–
CN1CC(O)N(c2cc(C(F)(F)F)ccn2)C1=O (stereo not shown) [Compound V]	2.52E+06 and 2.97E+06	1.5E6
